Reference: ChEMBL document CHEMBL6087476, “Positive Charge-Concentrated Dimeric Lipopeptides with Enhanced Protease Resistance: A Potential Solution for Systemic Bacterial Infections” (J Med Chem, 2025)
In brackets after ≈: the same amount, converted by molar mass. Activity calls are given as the source filed them. The rule behind the calls is not given here.

Assays:
Staphylococcus aureus [1] = test: Antimicrobial activity against Staphylococcus aureus 25923 assessed as increase in absorbance incubated for 20 to 22 hrs; format: functional; conditions: time 20-22 hrs
Escherichia coli [2] = test: Induction of membrane damage in Escherichia coli ATCC 25922 assessed as ruptured membrane by analysing red fluorescence at 8 uM measured after 1 hr incubation by PI - live and dead staining based fluorescence microscopy; format: functional, organism-based
Escherichia coli [3] = test: Induction of membrane damage in Escherichia coli ATCC 25922 assessed as damaged membrane surface (irregular vesicles protrusions) at 8 uM measured after 1 hr incubation by SEM analysis; format: functional, organism-based
[4] = Toxicity in ICR mouse assessed as slight manifestation of stooping at 20 mg/kg, ip measured within 1 hr; format: organism-based; conditions: in vivo
Acinetobacter baumannii = test: Antimicrobial activity against Acinetobacter baumannii AB1902 assessed as increase in absorbance incubated for 20 to 22 hrs; format: functional; conditions: time 20-22 hrs
Escherichia coli [5] = test: Antimicrobial activity against Escherichia coli K99 assessed as increase in absorbance incubated for 20 to 22 hrs; format: functional; conditions: time 20-22 hrs
Mus musculus = test: Anti-inflammatory activity against Escherichia coli ATCC 25922-induced peritonitis ICR mouse model assessed as decrease in TNF-alpha level in serum spleen at 10 mg/kg, ip measured after 12 hrs; format: functional, organism-based
Escherichia coli [6] = test: Antibacterial activity against Escherichia coli ATCC 25922 injected intraperitoneally in ICR mouse assessed as reduction in symptoms by measuring atrophy of renal glomeruli at 10 mg/kg, ip measured after 12 hrs by H and E staining based assay; format: functional, organism-based
Escherichia coli [7] = test: Antibacterial activity against Escherichia coli ATCC 25922 injected intraperitoneally in ICR mouse assessed as reduction bacterial load in liver at 10 mg/kg, ip measured after 12 hrs by H and E staining based assay; format: functional, organism-based
Escherichia coli [8] = test: Antibacterial activity against Escherichia coli ATCC 25922 injected intraperitoneally in ICR mouse assessed as reduction in symptoms by measuring disorganized hepatic cords in liver at 10 mg/kg, ip measured after 12 hrs by H and E staining based assay; format: functional, organism-based
Escherichia coli [9] = test: Antibiofilm activity against Escherichia coli ATCC 25922 biofilm assessed as removal of matured biofilm at 16 uM; format: functional, organism-based
Escherichia coli [10] = test: Antibacterial activity against Escherichia coli ATCC 25922 injected intraperitoneally in ICR mouse assessed as reduction bacterial load in lung at 10 mg/kg, ip measured after 12 hrs by H and E staining based assay; format: functional, organism-based
[11] = Toxicity in ICR mouse assessed as humpbacking at 20 mg/kg, ip measured after 1 hr; format: organism-based; conditions: in vivo
Escherichia coli [12] = test: Antimicrobial activity against Escherichia coli ATCC 25922 assessed as increase in absorbance incubated for 4 hrs in presence of 12.5% serum; format: functional, organism-based
Escherichia coli [13] = test: Antibacterial activity against Escherichia coli ATCC 25922 injected intraperitoneally in ICR mouse assessed as reduction in symptoms by measuring thickened respiratory membrane in lung at 10 mg/kg, ip measured after 12 hrs by H and E staining based assay; format: functional, organism-based
[14] = Toxicity in ICR mouse assessed as blood urea nitrogen (BUN) level in serum at 5 to 20 mg/kg, ip measured after 3 days; format: organism-based; conditions: in vivo, 72 h, dose 5-20 mg/kg, time 3 day
Escherichia coli [15] = test: Antimicrobial activity against Escherichia coli ATCC 25922 assessed as increase in absorbance incubated for 20 to 22 hrs in presence of K+ physiological salt; format: functional, organism-based; conditions: time 20-22 hrs
[16] = Toxicity in ICR mouse assessed as humpbacking at 20 mg/kg, ip measured within 1 hr; format: organism-based; conditions: in vivo
Escherichia coli [17] = test: Antimicrobial activity against Escherichia coli ATCC 25922 assessed as increase in absorbance incubated for 20 to 22 hrs in presence of […] physiological salt; format: functional, organism-based; conditions: time 20-22 hrs
Cell membrane [18] = test: Induction of depolarization of cytoplasmic membrane (CM) in Escherichia coli ATCC 25922 assessed as fluorescence changes at 1/2 to 3 times of MIC by fluorescent probe DiSC3-5 assay; format: subcellular; conditions: time 1000-3000 sec
Escherichia coli [19] = test: Antimicrobial activity against Escherichia coli ATCC 25922 assessed as increase in absorbance at 8 mg/ml incubated for 8 hrs in presence of trypsin; format: functional, organism-based
Escherichia coli [20] = test: Antimicrobial activity against Escherichia coli ATCC 25922 assessed as increase in absorbance at MIC concentration in presence of < 8 ug/ml Lipopolysaccharide incubated for 8 hrs; format: functional, organism-based; conditions: dose < 8.0 µg/ml
Enterococcus faecalis = test: Antimicrobial activity against Enterococcus faecalis 29212 assessed as increase in absorbance incubated for 20 to 22 hrs; format: functional; conditions: time 20-22 hrs
Escherichia coli [21] = test: Antimicrobial activity against Escherichia coli ATCC 25922 assessed as increase in absorbance incubated for 20 to 22 hrs in presence of NH4+ physiological salt; format: functional, organism-based; conditions: time 20-22 hrs
RAW264.7 = test: Cytotoxicity against mouse RAW264.7 cells assessed as cell death measured after 18 to 24 hrs by MTT assay; format: functional; conditions: time 18-24 hrs
[22] = Hemolytic activity in healthy human RBC assessed as hemolysis incubated for 1 hr by microplate reader; format: toxicity, cell-based; conditions: erythrocyte
Escherichia coli [23] = test: Resistance fold, ratio of MIC for Escherichia coli ATCC 25922 measured after 30 day passage period to MIC for Escherichia coli ATCC 25922; format: functional
Cell membrane [24] = test: Induction of depolarization of cytoplasmic membrane (CM) in Escherichia coli ATCC 25922 assessed as fluorescence changes at 1/2 to 3 times of MIC measured after 1000 to 3000 seconds by fluorescent probe DiSC3-5 assay; format: subcellular; conditions: time 1000-3000 sec
Cell membrane [25] = test: Induction of cytoplasmic membrane (CM) permeabilization in Escherichia coli ATCC 25922 assessed as utilization of ONPG at 1/2 MIC; format: subcellular
[26] = Toxicity in ICR mouse assessed as alanine aminotransferase (ALT) level in serum at 5 to 20 mg/kg, ip measured after 3 days; format: organism-based; conditions: in vivo, 72 h, dose 5-20 mg/kg, time 3 day
Staphylococcus aureus [27] = test: Antimicrobial activity against methicillin-resistant Staphylococcus aureus 43300 assessed as increase in absorbance incubated for 20 to 22 hrs; format: functional; conditions: time 20-22 hrs
[28] = Toxicity in ICR mouse assessed as alkaline phosphatase (ALP) level in serum at 5 to 20 mg/kg, ip measured after 3 days; format: organism-based; conditions: in vivo, 72 h, dose 5-20 mg/kg, time 3 day
Lipopolysaccharide (LPS) = test: Binding affinity to Escherichia coli O111:B4 Lipopolysaccharide by fluorescent probe BODIPYTR-cadaverine (BC) assay; conditions: dose 1-16 µM
[29] = Stability of compound assessed as pepsin (unknown origin)-mediated compound structural integrity change at 8 mg/ml incubated for 1 to 8 hrs by RP-HPLC analysis; format: ADME; conditions: human, time 1-8 hrs
Escherichia coli [30] = test: Induction of ROS accumulation in Escherichia coli ATCC 25922 at 4 uM incubated for 30 mins by DCFH-DA assay; format: functional, organism-based
Escherichia coli [31] = test: Antibacterial activity against Escherichia coli ATCC 25922 injected intraperitoneally in ICR mouse assessed as reduction bacterial load in kidney at 10 mg/kg, ip measured after 12 hrs by H and E staining based assay; format: functional, organism-based
[32] = Cytotoxicity against porcine IPEC-J2 cells assessed as cell death measured after 18 to 24 hrs by MTT assay; format: functional; conditions: Sus scrofa, time 18-24 hrs
Escherichia coli [33] = test: Antimicrobial activity against Escherichia coli ATCC 25922 assessed as increase in absorbance at 8 mg/ml incubated for 8 hrs in presence of pepsin; format: functional, organism-based

With CCCCCCCCCC(=O)NCCCC[C@H](N)C(=O)NCC(=O)NCC(=O)NCC(=O)N[C@H](CCCNC(=N)N)C(=O)N[C@@H](CCCNC(=N)N)C(=O)N[C@@H](CCCNC(=N)N)C(=O)N1CCC[C@H]1C(=O)N[C@@H](CSSC[C@H](NC(=O)[C@@H]1CCCN1C(=O)[C@H](CCCNC(=N)N)NC(=O)[C@H](CCCNC(=N)N)NC(=O)[C@@H](CCCNC(=N)N)NC(=O)CNC(=O)CNC(=O)CNC(=O)[C@@H](N)CCCCNC(=O)CCCCCCCCC)C(=O)O)C(=O)O the MIC (Staphylococcus aureus [1]) was 4 µM (≈ 9.12 µg/mL), the Activity (Escherichia coli [2]) was “Active” and the Activity (Escherichia coli [3]) was “Active”. For the same molecule, the Activity [4] was “Toxic”, the MIC (Acinetobacter baumannii) was 8 µM (≈ 18.2 µg/mL) and the MIC (Escherichia coli [5]) was 4 µM (≈ 9.12 µg/mL). The Activity (Mus musculus) was “Active”, the Activity (Escherichia coli [6]) was “Active” and the Activity (Escherichia coli [7]) was “Active”. The Activity (Escherichia coli [8]) was “Active”, the Activity (Escherichia coli [9]) was “Active” and the Activity (Escherichia coli [10]) was “Active”. The Activity [11] was “Non-toxic”, the Activity (Escherichia coli [12]) was “Active” and the Activity (Escherichia coli [13]) was “Active”. The Activity [14] was “Non-toxic”, the Activity (Escherichia coli [15]) was “Active; C-C10)C-C Demonstrated Superior Physiological Salt Tolerance In Comparison To (N-C10)C-C” and the Activity [16] was “Toxic”. The Activity (Escherichia coli [17]) was “Active; C-C10)C-C Demonstrated Superior Physiological Salt Tolerance In Comparison To (N-C10)C-C”, the Activity (Cell membrane [18]) was “Time-dependent-effect” and the Activity (Escherichia coli [19]) was “Active; Negligible Alteration In Mic Values Found”. For the same molecule, the Activity (Escherichia coli [20]) was “Active”, the MIC (Enterococcus faecalis) was 4 µM (≈ 9.12 µg/mL) and the Activity (Escherichia coli [21]) was “Active; C-C10)C-C Demonstrated Superior Physiological Salt Tolerance In Comparison To (N-C10)C-C”. For the same molecule, the IC10 (RAW264.7) was 256 µM, the HC10 [22] was 256 µM and the “fold change (FC)” value (Escherichia coli [23]) was “<=2”. The Activity (Cell membrane [24]) was “Dose-dependent-effect”, the Activity (Cell membrane [25]) was “Active” and the Activity [26] was “Non-toxic”. The MIC (Staphylococcus aureus [27]) was 4 µM (≈ 9.12 µg/mL), the Activity [28] was “Non-toxic” and the Activity (Lipopolysaccharide (LPS)) was “Dose-dependent-effect”. The Stability [29] was “Stable”, the Activity (Escherichia coli [30]) was “Active” and the Activity (Escherichia coli [31]) was “Active”. The IC10 [32] was 256 µM and the Activity (Escherichia coli [33]) was “Active; Negligible Alteration In Mic Values Found”.
